For assay [1], the target named is T1, Prostaglandin G/H synthase 2 (Homo sapiens) (UniProt P35354).
T1 sequence (whole entry): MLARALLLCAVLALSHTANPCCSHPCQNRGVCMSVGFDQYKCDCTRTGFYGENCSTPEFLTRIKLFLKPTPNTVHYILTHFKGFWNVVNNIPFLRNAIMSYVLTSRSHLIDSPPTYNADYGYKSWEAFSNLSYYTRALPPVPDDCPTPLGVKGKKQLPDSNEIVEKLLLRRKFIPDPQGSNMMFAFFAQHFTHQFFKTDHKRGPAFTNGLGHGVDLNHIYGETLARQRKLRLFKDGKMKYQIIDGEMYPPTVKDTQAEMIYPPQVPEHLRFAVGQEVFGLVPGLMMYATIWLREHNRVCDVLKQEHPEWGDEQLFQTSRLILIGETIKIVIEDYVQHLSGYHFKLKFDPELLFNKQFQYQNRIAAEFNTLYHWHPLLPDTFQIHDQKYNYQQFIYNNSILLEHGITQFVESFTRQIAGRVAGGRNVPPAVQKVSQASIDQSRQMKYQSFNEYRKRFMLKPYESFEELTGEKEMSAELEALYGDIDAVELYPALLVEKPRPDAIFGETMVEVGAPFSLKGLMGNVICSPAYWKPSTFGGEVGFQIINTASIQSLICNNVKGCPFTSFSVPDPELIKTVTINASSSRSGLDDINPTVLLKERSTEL
The note with it: at 30 µM.
Description: Inhibition of COX2 at 30 uM

The target of assay [2] is T2, Prostaglandin G/H synthase 1 (Homo sapiens, UniProt P23219). The following applies: at 30 µM.
T2 sequence (P23219 whole entry): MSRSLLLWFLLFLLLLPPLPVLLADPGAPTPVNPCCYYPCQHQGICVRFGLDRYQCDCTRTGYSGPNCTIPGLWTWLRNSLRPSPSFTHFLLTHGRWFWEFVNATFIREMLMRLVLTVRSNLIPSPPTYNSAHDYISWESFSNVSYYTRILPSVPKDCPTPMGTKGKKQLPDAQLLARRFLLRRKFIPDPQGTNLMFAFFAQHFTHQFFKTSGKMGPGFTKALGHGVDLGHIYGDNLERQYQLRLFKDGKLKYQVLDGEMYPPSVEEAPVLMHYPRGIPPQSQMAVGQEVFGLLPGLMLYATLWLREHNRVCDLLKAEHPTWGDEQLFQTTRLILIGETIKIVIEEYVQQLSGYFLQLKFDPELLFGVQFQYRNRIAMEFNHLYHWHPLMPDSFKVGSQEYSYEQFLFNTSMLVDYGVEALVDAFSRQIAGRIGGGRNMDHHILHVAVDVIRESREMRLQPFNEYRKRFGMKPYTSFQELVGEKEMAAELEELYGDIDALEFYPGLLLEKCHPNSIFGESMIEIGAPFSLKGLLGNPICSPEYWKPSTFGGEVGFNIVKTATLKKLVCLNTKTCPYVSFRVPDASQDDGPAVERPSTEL
Description: Inhibition of COX1 at 30 uM
For assay [3], the system named is Mus musculus. Put plainly: Antiinflammatory activity against TPA-induced mouse edema model assessed as ear thickness at 0.5 mg/ear (Rbv = 0.270 +/- 0.008 mm). Format: functional.
The test system of assay [4] is Mus musculus. The assay can be described thus: Antiinflammatory activity against TPA-induced mouse edema model assessed as reduction in ear edema at 0.5 mg/ear. The format is functional.
Assay [5] deals with T2, Prostaglandin G/H synthase 1. The assay can be described thus: Inhibition of COX1.
For assay [6], the target named is T3, Prostaglandin G/H synthase 2 (Homo sapiens, UniProt P35354).
T3 sequence (P35354 whole entry): T1 sequence (whole entry)

For `COc1cc2oc(C)cc(=O)c2c(OC(=O)c2ccccc2)c1OC`, the figures for the inhibition in assay [1] and in assay [2] were 68.1% and 45.8%, respectively.
Consider `COc1cc(/C=C/C(=O)CC(=O)/C=C/c2ccc(O)c(OC)c2)ccc1O`, for which, in assay [2], the inhibition (as a rule, the percentage by which the read-out fell short of the control) was 59%.
As for `COc1c(OC)c(O)c2c(=O)cc(C)oc2c1Cl`, in the assay with Mus musculus [3], the Activity is listed as 0.105 mm. Further, the “inhibition (INH)” value in the assay with Mus musculus [4] is listed as 61.11%. Besides, the IC50 (usually the concentration that inhibits the measured activity by half) in assay [5] is 27.2 µM; in assay [6] it was 43.4 µM. The inhibition in assay [1] was found to be 50.3%; in assay [2], 66.8%.
Regarding `CCOc1c(OC)c(OC)cc2oc(C)cc(=O)c12`, the inhibition in assay [1] amounted to 49.8%; in assay [2], 54.9%.
For the molecule `Cc1cc(=O)c2c(O)c(O)c(O)cc2o1`, the Activity with Mus musculus [3] worked out at 0.025 mm. Further, the “inhibition (INH)” value with Mus musculus [4] is recorded as 90.74%. In addition, the IC50 in assay [5] amounted to 14.4 µM; in assay [6], 8.87 µM. In addition, the inhibition in assay [1] stood at 94.1%; in assay [2], 87.5%.
`CCCOc1c(OC)c(OC)cc2oc(C)cc(=O)c12`: the inhibition in assay [1] amounted to 48.4%; in assay [2], 40.2%.
The like results for `COc1c(OC)c(O)c2c(=O)cc(C)oc2c1I` were, in that order, 37.7% and 57.2%.
`COc1ccc2c(c1)c(CC(=O)O)c(C)n2C(=O)c1ccc(Cl)cc1` [INDOMETHACIN]: in the assay with Mus musculus [3], the Activity worked out at 0.05 mm. Further, the “inhibition (INH)” value with Mus musculus [4] is 81.48%.
Consider `COc1cc2oc(C)cc(=O)c2c(OC(C)=O)c1OC`, for which the figures for the inhibition in assay [1] and in assay [2] were 46.2% and 59%, respectively.
Turning to `COc1cc2oc(C)cc(=O)c2c(O)c1O`, in the assay with Mus musculus [3], the Activity is listed as 0.058 mm. In addition, the “inhibition (INH)” value in the assay with Mus musculus [4] came to 78.4%. Moreover, the IC50 is 19.8 µM in assay [5] and 15.4 µM in assay [6]. Besides, the inhibition in assay [1] turned out to be 85%; in assay [2], 78.1%.
Turning to `COc1cc2oc(C)cc(=O)c2c(OCc2ccccc2)c1OC`, the inhibition in assay [1] amounted to 48.1%; in assay [2], 63.4%.
Consider `COc1cc2oc(C)cc(=O)c2c(O)c1OCC=C(C)C`, for which the Activity in the assay with Mus musculus [3] came out at 0.06 mm. Further, the “inhibition (INH)” value in the assay with Mus musculus [4] is listed as 77.77%. In addition, the IC50 in assay [5] amounted to 18.7 µM; in assay [6], 15.5 µM. Besides, the inhibition came out at 83.2% in assay [1] and 80.7% in assay [2].
Consider `C=CCOc1cc2oc(C)cc(=O)c2c(O)c1OCC=C`, for which, in the assay on Mus musculus [3], the Activity was determined as 0.053 mm. The “inhibition (INH)” value in the assay on Mus musculus [4] is 80.24%. The IC50 in assay [5] worked out at 21.6 µM; in assay [6] it was 13.5 µM. Moreover, the inhibition was 89.5% in assay [1] and 74.1% in assay [2].
For the molecule `COc1cc2oc(C)cc(=O)c2c(OC)c1OC`, the inhibition in assay [1] stood at 47.4%; in assay [2] it was 70.3%.
For `COc1cc2oc(C)cc(=O)c2c(O)c1OC` [STELLATIN], the Activity in the assay with Mus musculus [3] is listed as 0.082 mm. Also, the “inhibition (INH)” value with Mus musculus [4] is 69.44%. In addition, the IC50 came out at 22.3 µM in assay [5] and 19.7 µM in assay [6]. Moreover, the inhibition was found to be 80.2% in assay [1] and 71.5% in assay [2].
In the case of `COc1cc2oc(C)cc(=O)c2c(OCC=C(C)C)c1OC`, the Activity in the assay with Mus musculus [3] came out at 0.061 mm. In addition, the “inhibition (INH)” value in the assay on Mus musculus [4] is 77.16%. The figures for the IC50 in assay [5] and in assay [6] were 22.9 µM and 17.6 µM, respectively. The inhibition in assay [1] came out at 82.5%; in assay [2] it was 70.1%.
Take `C=CCOc1c(OC)cc2oc(C)cc(=O)c2c1O`: the Activity in the assay with Mus musculus [3] is 0.077 mm. For the same molecule, the “inhibition (INH)” value in the assay on Mus musculus [4] was determined as 71.3%. Besides, the IC50 in assay [5] amounted to 26 µM; in assay [6] it was 18 µM. The inhibition in assay [1] was 81.5%; in assay [2], 68.3%.
As for `COc1c(OC)c(O)c2c(=O)cc(C)oc2c1Br`, in the assay with Mus musculus [3], the Activity amounted to 0.08 mm. The “inhibition (INH)” value with Mus musculus [4] came out at 70.37%. In addition, the results for the IC50 in assay [5] and in assay [6] were 29.3 µM and 25.4 µM, respectively. Moreover, the inhibition turned out to be 67% in assay [1] and 63.8% in assay [2].
`CCCCOc1c(OC)c(OC)cc2oc(C)cc(=O)c12`: the inhibition in assay [1] was found to be 52.5%; in assay [2] it was 28.4%.
Turning to `CC(C)=CCOc1cc2oc(C)cc(=O)c2c(O)c1OCC=C(C)C`, the Activity with Mus musculus [3] is recorded as 0.04 mm. Further, the “inhibition (INH)” value in the assay with Mus musculus [4] came out at 85.18%. The IC50 in assay [5] came to 17.2 µM; in assay [6] it was 10.3 µM. The results for the inhibition in assay [1] and in assay [2] were 91.7% and 82.3%, respectively.
Take `COc1cc(O)c2c(=O)cc(C)oc2c1` [EUGENIN]: the Activity with Mus musculus [3] was 0.071 mm. Besides, the “inhibition (INH)” value in the assay with Mus musculus [4] came out at 73.2%. In addition, the IC50 in assay [5] turned out to be 17.8 µM; in assay [6], 20.1 µM. The inhibition stood at 78.5% in assay [1] and 85.6% in assay [2].
On to `C=CCOc1c(OC)c(OC)cc2oc(C)cc(=O)c12`, for which the Activity in the assay on Mus musculus [3] was determined as 0.09 mm. The “inhibition (INH)” value in the assay with Mus musculus [4] came to 66.66%. Further, the values for the IC50 in assay [5] and in assay [6] were 38.3 µM and 21.2 µM, respectively. Besides, the results for the inhibition in assay [1] and in assay [2] were 73.9% and 56.2%, respectively.

(Values after ChEMBL document CHEMBL1681761, “Synthesis, biological evaluation and molecular docking studies of stellatin derivatives as cyclooxygenase (COX-1, COX-2) inhibitors and anti-inflammatory agents” (Bioorg Med Chem Lett, 2011).)
